Measured values from paper PMC13267113 (npj Drug Discovery, 2025).
In brackets after ≈: the same amount, converted by molar mass.

What was measured:
[1] = Metabolic stability in mouse hepatocytes; type: in vitro ADME
Method: For the evaluation of combined phase I and phase II metabolic stability, the compound (1 μM) was incubated with 0.25 × 10^6 cells/mL of pooled mouse hepatocytes (Xenotech, Kansas City, USA). Cells were thawed in Leibovitz’s L-15 medium without phenol red (ThermoFisher Scientific, Waltham, USA). Briefly, cells were transferred into 50 mL of medium, followed by centrifugation at 55 g for 6 min. Supernatant was discarded, and the cell count was determined after gently resuspending the cell pellet in 1mL of medium. Hepatocytes were diluted to 0.5 × 10^6 cells/mL and incubated at 37 °C, 700 rpm for 10 min, to achieve the desired final cell count after addition of an equal volume of test compounds in medium, leading to a final test concentration of 1 µM at 1% DMSO. […] For the determination of metabolism in the presence of cobicistat, this drug was added together with test compounds in the desired concentration range. The metabolic stability of testosterone, verapamil, ketoconazole and 7-hydroxycoumarine were determined in parallel to confirm the enzymatic activity of mouse hepatocytes. […] Concentration of the remaining test compound at the different time points was analyzed by HPLC-MS/MS (Vanquish Flex coupled to a TSQ Altis Plus, Thermo Fisher, Dreieich, Germany) and used to determine half-life (t1/2). Intrinsic clearance was calculated as follows:2 CLintµL/min×10^6cells=Incubation volumeµL×ln(2)/Cells in incubation mixture[10^6]×t1/2
For metabolite identification studies, test compounds were incubated at 10 µM final concentration and samples were analyzed using HPLC-HRMS (Ultimate 3000 coupled to a Q Exactive Focus, Thermo Fisher, Dreieich, Germany). […] Blank samples using DMSO were run in parallel for background subtraction. Sample processing for metabolite identification was performed using Compound Discoverer 3.2 (Thermo Fisher, Dreieich, Germany). Metabolites were identified based on mass shifts and feasibility of the metabolic reaction, also in view of MS peak intensities over time.

HepG2 (human, liver) = experiment: MTT cytotoxicity HepG2; type: cell-based; conditions: 72 h, n = 3
Method: (§1) All cell types were cultivated at 37 °C with 5% CO2. HepG2, HEK293, HCT116, CHO-K1, HeLa-CCL-2 and Huh-7.5 were purchased from ATCC. The respective cell media (Gibco) were supplemented with 10% FBS (Gibco) before usage. Cells were used between passages #5 and #30. To obtain biological repeats, cells were split separately for at least two passages.
(§2) Cells were washed with PBS and 0.5 mL trypsin was added. Afterwards, cells were incubated for 5 min before adding 10 mL medium containing 10% FBS. Per well, 120 µL cell suspension (5 × 10^4 cells/mL) was seeded in transparent 96-well cell bind plates and incubated for 2 h (37 °C, 5% CO2). A dilution series (1:3) of test compounds was prepared in respective media containing 10% FBS and added (60 µL) to the prepared cell plate. Cells were incubated for a further 72 h (37 °C, 5% CO2). Next, 20 µL MTT (5 mg/mL in PBS) was added to each well and incubated for 2 h (37 °C, 5% CO2). The wells were emptied and 100 µL isopropanol/10 N HCl (1000:4) per well was added.
(§3) The plates were analyzed by measuring the absorbance at 570 nm (plate reader Infinite® 200 Pro, Tecan). After normalization of data to the respective solvent controls, the calculated percentage of growth inhibition was plotted using GraphPad Prism software (version 10.0.2).

Mouse plasma stability = type: in vitro ADME; conditions: read-out: Mouse plasma t1/2
HCT116 (human, colon) = experiment: MTT cytotoxicity HCT116; type: cell-based; conditions: HCT-116, 72 h, n = 3
Method: as §1, §2, §3

[2] = biological target: T1, human DNA topoisomerase IIα (TOP2A) (Homo sapiens, UniProt P11388); experiment: human topoisomerase II alpha decatenation assay; type: biochemical; conditions: n = 3, read-out: IC50 against TOP2A
T1 construct: purchased Inspiralis
T1 sequence (P11388 whole entry): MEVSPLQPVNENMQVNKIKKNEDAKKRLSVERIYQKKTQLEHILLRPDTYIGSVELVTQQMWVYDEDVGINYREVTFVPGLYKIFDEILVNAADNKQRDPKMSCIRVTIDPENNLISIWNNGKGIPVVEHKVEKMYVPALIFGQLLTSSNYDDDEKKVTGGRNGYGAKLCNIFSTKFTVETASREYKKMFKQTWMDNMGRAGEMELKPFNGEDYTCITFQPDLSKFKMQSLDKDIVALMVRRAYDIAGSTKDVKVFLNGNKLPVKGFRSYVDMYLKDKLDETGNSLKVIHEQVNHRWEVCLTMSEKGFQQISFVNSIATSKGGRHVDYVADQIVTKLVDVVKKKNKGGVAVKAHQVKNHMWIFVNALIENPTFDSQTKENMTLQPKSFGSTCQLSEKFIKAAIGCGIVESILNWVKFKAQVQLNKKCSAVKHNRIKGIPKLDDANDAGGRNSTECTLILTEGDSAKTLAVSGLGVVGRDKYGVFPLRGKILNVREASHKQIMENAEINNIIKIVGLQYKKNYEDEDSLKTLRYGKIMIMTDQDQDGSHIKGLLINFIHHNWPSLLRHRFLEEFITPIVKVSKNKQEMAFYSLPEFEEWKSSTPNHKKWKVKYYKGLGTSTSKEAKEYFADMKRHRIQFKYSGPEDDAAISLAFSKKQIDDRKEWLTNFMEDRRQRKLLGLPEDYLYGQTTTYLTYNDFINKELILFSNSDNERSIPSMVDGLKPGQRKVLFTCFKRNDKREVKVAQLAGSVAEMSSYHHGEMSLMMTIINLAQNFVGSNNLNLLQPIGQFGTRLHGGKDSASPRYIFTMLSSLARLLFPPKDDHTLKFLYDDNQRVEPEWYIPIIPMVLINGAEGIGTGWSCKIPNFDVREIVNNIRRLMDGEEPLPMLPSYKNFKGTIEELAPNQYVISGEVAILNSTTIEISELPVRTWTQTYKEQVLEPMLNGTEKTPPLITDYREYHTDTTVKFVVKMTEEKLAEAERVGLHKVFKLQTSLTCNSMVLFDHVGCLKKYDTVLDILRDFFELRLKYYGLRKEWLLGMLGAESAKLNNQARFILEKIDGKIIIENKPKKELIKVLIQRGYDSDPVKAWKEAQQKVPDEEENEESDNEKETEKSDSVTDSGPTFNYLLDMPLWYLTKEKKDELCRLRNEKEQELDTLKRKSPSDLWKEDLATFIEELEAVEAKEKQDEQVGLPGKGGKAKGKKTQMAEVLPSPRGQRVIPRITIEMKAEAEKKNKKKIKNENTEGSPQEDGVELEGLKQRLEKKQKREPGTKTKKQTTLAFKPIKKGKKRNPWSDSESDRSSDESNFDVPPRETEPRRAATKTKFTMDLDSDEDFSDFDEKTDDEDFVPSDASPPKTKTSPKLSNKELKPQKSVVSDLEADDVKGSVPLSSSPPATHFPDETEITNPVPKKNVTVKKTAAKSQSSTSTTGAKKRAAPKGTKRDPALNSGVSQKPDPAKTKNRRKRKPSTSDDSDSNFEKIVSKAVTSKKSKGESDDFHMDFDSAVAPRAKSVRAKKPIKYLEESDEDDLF
Method: Inhibition of topoisomerase activity was examined using the human topoisomerase II alpha decatenation assay kit (Inspiralis) as indicated by the manufacturer. Briefly, a compound dilution series was prepared in DMSO. Water, dilution buffer, assay buffer, plasmid and enzyme were mixed with the compound solution and incubated at 37 °C for 30 min. A positive control (100% activity) was prepared without the compound, and a negative control (0% activity) was prepared without the compound and the enzyme. The reaction was stopped by adding gSTEB-buffer and chloroform/isoamylalcohol (24:1 v/v). The samples were vortexed and centrifuged before running gel electrophoresis. The gel was stained with ethidium bromide and imaged using a Fusion Fx gel imager (Vilber Lourmat). Subsequent analysis was done using ImageJ and GraphPad Prism (Version 10.0.2).

[3] = Mouse plasma protein binding; type: in vitro ADME; conditions: read-out: Mouse PPB (converted)
physchem = conditions: zebrafish embryo incubation medium, aqueous buffer, kinetic from dmso stock
U-2 OS cells = experiment: Mitochondrial superoxide formation (MitoSOX Red); type: cell-based, human; conditions: n = 6
Method: CYS was tested for its potential to induce oxidative stress in U-2 OS cells. Therefore, 120 µL of a cell suspension in McCoy’s (+10% FBS) containing 5 × 10^4 cells/mL were seeded into black 96-well imaging plate (BD Falcon). The plates were incubated for two days (37 °C, 5% CO2) until the cells reached approximately 70% confluence. Subsequently, the cells were washed with HBSS buffer, prior to adding CYS (20 µM) and the ROS inducer menadione (50 µM) as positive control, along with the staining solution (HBSS, calcium, magnesium, 5 µM MitoSOX red and 10 µg/mL Hoechst (Thermo)). To check for ROS protective properties, menadione (50 µM) was added directly to the staining solution. […] Afterwards, the cells were washed twice with HBSS. The cells were imaged using an automated fluorescence microscope (Celldiscoverer 7, Zeiss) (excitation: […]) to analyze the fluorescence intensity of the superoxide tracker MitoSOX red. The experiment was carried out with six replicates per condition. Quantification was done by high-content image analysis using the ZEN software (version 3.4, blue edition, Zeiss). Data presentation was done using GraphPad Prism (version 10.0.3) with ordinary one-way ANOVA including multiple comparisons to the control group for statistical analysis of the sample without ROS induction via menadione in the staining solution. Multiple unpaired t test was used to compare samples for ROS protective properties, which were incubated with menadione in the staining solution.

HeLa (human, cervix) = experiment: MTT cytotoxicity HeLa; type: cell-based; conditions: 72 h, n = 3
Method: as §1, §2, §3

[4] = Metabolic stability in mouse liver microsomes; type: in vitro ADME; conditions: pooled mouse liver microsomes, 0.5 mg/mL microsomes, NADPH
Method: The metabolic stability of testosterone, verapamil and ketoconazole was determined in parallel to confirm the enzymatic activity of mouse liver microsomes. For combination experiments, cobicistat was added to the incubation mixture together with test compounds. […] Concentration of the remaining test compound at the different time points was analyzed by HPLC-MS/MS (Vanquish Flex coupled to a TSQ Altis Plus, Thermo Fisher, Dreieich, Germany) and used to determine half-life (t1/2).

[5] = tested on: U2OS (human, osteosarcoma); experiment: MTT cytotoxicity U2OS; type: cell-based; conditions: 72 h, n = 3
Method: as §2, §3

For CO[C@H](C(N)=O)[C@H](NC(=O)c1ccc(NC(=O)c2ccc(C#N)cc2)cc1)C(=O)Nc1ccc(C(=O)Nc2ccc(C(=O)Nc3ccc(C(=O)O)cc3)c(O)c2OC(C)C)cc1 [CN-861-2], the “stable in murine hepatocytes for” value [1] was > 3 h, the hepatocyte CLint at 1 µM ([1]; mouse, pooled mouse hepatocytes, 1 μM, 0.25 × 10^6 cells/mL) was < 5.1 µL/min/1e6 cells and the half-life at 1 µM ([1]; mouse, pooled mouse hepatocytes, 1 μM, 0.25 × 10^6 cells/mL, read-out: Mouse Hepatocytes t1/2) was > 3 h. For the same compound, the IC50 (HepG2 (human, liver)) was > 20 µM, the half-life (Mouse plasma stability) was > 4 h and the IC50 (HCT116 (human, colon)) was > 20 µM. It also gave an IC50 [2] of 6.26 ± 4.69 µM, a fraction unbound [3] of 0.0037 and a solubility (physchem) of 20 µM (≈ 16.8 µg/mL). For the same compound, the “basal superoxide radical levels vs DMSO control” value (U-2 OS cells; 20 µM, MitoSOX Red, no menadione) was “decrease of superoxide radical levels”, the “menadione-induced superoxide formation on co-treatment” value (U-2 OS cells; CYS 20 µM + menadione 50 µM) was “slight yet statistically significant increase in superoxide production” and the IC50 (HeLa (human, cervix)) was > 37 µM. For the same compound, the microsomal CLint at 1 μM ([4]; read-out: MLM Clint) was < 11.6 µL/min/mg, the half-life at 1 µM ([4]; read-out: MLM t1/2) was > 2 h and the IC50 [5] was > 20 µM.
